These results are taken from publication PMC9606171, “Synthetic PPAR Agonist DTMB Alleviates Alzheimer’s Disease Pathology by Inhibition of Chronic Microglial Inflammation in 5xFAD Mice” (Neurotherapeutics, 2022).

The test system of one experiment is PPAR-β/δ. Further details: method as in PMID 27802237. To be noted: dual agonist of PPAR-β/δ and PPARγ; cited from earlier work.
The test system of experiment [1] is RAW 264.7 macrophage cells. The experiment is described as follows: Griess assay, LPS-induced NO production. The class given is cell-based. To be noted: LPS (1 µg/mL), 24 h. The method, then:
Griess assay (Promega) was performed under manufacturer’s instruction to measure the concentration of nitrite after inducing the inflammatory response in RAW 264.7 macrophage cells by LPS treatment. The well-known PPAR selective agonists, such as WY14643 (PPARα), GW501516 (PPAR-β/δ), and rosiglitazone (PPARγ), were used as positive controls.

Consider `CCc1oc(-c2ccc(OC)cc2)nc1CCOc1ccc2c(c1)CC[C@H]2CC(=O)[O-].[Na+]` [T3D-959], for which the “selectivity to PPAR-β/δ” value in the experiment on PPAR-β/δ is reported as 15 fold. With `Cc1cc(SCc2sc(-c3ccc(C(F)(F)F)cc3)nc2C)ccc1OCC(=O)O` [GW501516, reference compound], in experiment [1], the “inhibition of NO production compared between DTMB and known PPAR agonists” value was “better inhibitor than DTMB”.
